Assay results taken from patent publication US7196110B2, “N-substituted tricyclic 3-aminopyrazoles as inhibitors for the treatment of cell proliferative disorders” (Janssen Phamaceutica N.V., priority 2002, dated 2007).

Legend:
[1] = test system: human chronic myelogenous leukemia (CML) K562 cell line; test: Flow cytometry cell cycle phase distribution in leukemia cells; format: cell-based; conditions: K562, 24 hours
Procedure: (§1) The effect of compounds of the invention on cell proliferation in leukemia cells, in particular, the human chronic myelogenous leukemia (CML) K562 cell line, was tested using flow cytometry and trypan blue exclusion cell counting assays.
(§2) The human chronic myelogenous leukemia (CML) K562 cell line was obtained from American Type Culture Collection (ATCC) and cultured under specified conditions, as provided by ATCC. A Becton Dickinson FACSCalibur instrument was used for flow cytometry analyses. A CycleTEST PLUS DNA Reagent Kit (Cat. No. 340242, Becton Dickinson) was used in the study for cell staining. The standard operating procedure and a protocol for CycleTEST PLUS DNA Reagent Kit from Becton Dickinson have been followed to carry out the study. Briefly, flow cytometric analysis of the differentially stained CML K562 cell line was used to estimate the DNA content and cell cycle phase distribution of cells treated with various concentrations of the compound for 24 hours. […] Data analysis was carried out using the ModFit LT cell cycle data analysis program (Verity Software House, Topsham, Me. 04086, www.vsh.com). Cell viability test was performed using a Trypan Blue exclusion assay (Trypan Blue from Sigma, Cat No. T 0776) following procedures known to those skilled in the art.

[2] = test system: human chronic myelogenous leukemia (CML) K562 cell line; test: Trypan blue exclusion cell counting assay in leukemia cells; format: cell-based
Procedure: as §1, §2

H460 = test: Flow cytometry and trypan blue exclusion cell counting, H460; format: cell-based, human
[3] = test system: MDAH2774 (ovarian cancer); test: Clonogenicity assay, compound in combination with irradiation, MDAH2774; format: cell-based, human
Procedure: Radiotherapy is a major therapeutic modality in treating many types of cancers including human prostate and ovarian cancers. The anti-proliferative activity of compounds within the scope of the invention was tested in combination with irradiation treatment.
Cells DU145 (prostate cancer) and MDAH2774 (ovarian cancer) were obtained from ATCC; growth media MEM medium (Mediatech, Herndon, Va.) was supplemented with 8% FBS, 5 U/ml penicillin and 50 μg/ml Streptomycin (Hyclone, Logan, Utah), 2 mM L-glutamine (Hyclone, Logan, Utah), 25 mM HEPES (Hyclone, Logan, Utah); McCoy's 5A medium (Mediatech, Herndon, Va.) was supplemented with 8% FBS, 50 U/ml penicillin and 50 μg/ml-Strep (Hyclone, Logan, Utah) and Glutamine 2 mM L-glutamine (Hyclone, Logan, Utah), ^137CS γ-source was a Gammacell 1000 Elite irradiator (MDS Nordion, Kanata, Ontario, Canada); DMSO; 1× PBS; Methanol; 0.25% Crystal Violet, and 60 mm tissue culture dishes.
DU145 or MDAH2774 cells at desired cell number were plated in early log phase on 60 mm dishes in MEM medium supplemented with 8% FBS, Penicillin, Streptomycin, L-glutamine, or McCoys medium supplemented with 8% FBS, Penicillin, Streptomycin and Glutamine, respectively. Cells were plated in triplicate. […] The final concentrations of the compound in the cell media ranged from 1 to 100 nM. After 24 h incubation with the test compound plates were split in two groups of equal size. The plates in the first group were irradiated with 7.3 Gy (plates containing DU145 cells) or 5.4 Gy (plates containing MDAH2774 cells) using a ^137Cs γ-source (dose rate 3.32 Gy/min). The second group of plates were treated identically but not irradiated. Cells were incubated for an additional 24 hours in medium containing test compound. Then, the cells were replenished with fresh compound-free identical medium and allowed to grow for an additional 11 days. Cells were then fixed with methanol, stained with 0.25% crystal violet, and the clones containing more than 50 cells were counted.
The activity appeared to be concentration-dependent with more dramatic effects achieved at 100 nM compound with radiation in either cell line.

LoVo = test: Flow cytometry and trypan blue exclusion cell counting, LoVo; format: cell-based, human
[4] = Rat pharmacokinetics study of pro-drugs, conversion to parent monitored by HPLC/MS/MS; format: in vivo; conditions: po, rat plasma, 10 mg/kg orally, read-out: Fast PK (0.5 h) conc. Prodrug
Procedure: Furthermore, pro-drugs have been administered orally to rats (10 mg/kg) in pharmacokinetics studies, and the conversion of pro-drugs to the parent compound was montitored by HPLC/MS/MS analyses. Parent compound or the glucuronide conjugates of the parent compound was detected in the rat plasma from the pharmacokinetics studies (Table G).

**Q.** With `COc1cc2c(cc1OC)-c1n[nH]c(Nc3cccc(F)c3)c1C2` [Compound 14, (3-Fluoro-phenyl)-(6,7-dimethoxy-2,4-dihydro-indeno[1,2-c]pyrazol-3-yl)-amine] as the compound, how does the “Percent of cells at G0–G1” value ([1]; compound conc. 1 nM) read?
**A.** The value was 35%.

**Q.** And the “Percent of cells at G2/M” value ([1]; compound conc. 1 nM)?
**A.** The value was 11%.

**Q.** What about the “Percent of cells at S phase” value ([1]; compound conc. 1 nM) of the same compound?
**A.** Its value is 53%.

**Q.** And the “Percent of cells at G0–G1” value ([1]; compound conc. 10 nM)?
**A.** The value was 31%.

**Q.** And the “Percent of cells at G2/M” value ([1]; compound conc. 10 nM)?
**A.** The value was 28%.

**Q.** And the “Percent of cells at S phase” value ([1]; compound conc. 10 nM)?
**A.** The value was 41%.

**Q.** What about the “Percent of cells at G0–G1” value ([1]; compound conc. 100 nM) of the same compound?
**A.** The value was 2%.

**Q.** What about the “Percent of cells at G2/M” value ([1]; compound conc. 100 nM) of the same compound?
**A.** Its value is 98%.

**Q.** What about the “Percent of cells at S phase” value ([1]; compound conc. 100 nM) of the same compound?
**A.** Its value is 0%.

**Q.** And the “Percent of cells at G0–G1” value ([1]; compound conc. 1000 nM)?
**A.** The value was 3%.

**Q.** What about the “Percent of cells at G2/M” value ([1]; compound conc. 1000 nM) of the same compound?
**A.** Its value is 93%.

**Q.** And the “Percent of cells at S phase” value ([1]; compound conc. 1000 nM)?
**A.** Its value is 4%.

**Q.** And the “Percent of cells at G0–G1” value ([1]; compound conc. 10000 nM)?
**A.** Its value is 5%.

**Q.** And the “Percent of cells at G2/M” value ([1]; compound conc. 10000 nM)?
**A.** Its value is 90%.

**Q.** What about the “Percent of cells at S phase” value ([1]; compound conc. 10000 nM) of the same compound?
**A.** Its value is 5%.

**Q.** What about the “effect on cell proliferation in K562 cells” value ([2]; 24 hours treatment) of the same compound?
**A.** The value was “concentration-dependent decrease of cell proliferation”.

**Q.** What about the IC50 ([2]; Homo sapiens, K562, 24 hours treatment, read-out: IC50 on K562 cell proliferation) of the same compound?
**A.** Its IC50 is about 10 nM.

**Q.** What about the “cell cycle / growth effect in H460 cells” value (H460) of the same compound?
**A.** The value was “blocked growth”.

**Q.** And the “colony formation inhibition with versus without radiation, MDAH2774” value ([3]; 5.4 Gy, compound 1 to 100 nM)?
**A.** The value was “the inhibitory effect was greater with radiation”.

**Q.** And the “concentration from which marked inhibitory activity against colony formation was shown, MDAH2774” value ([3]; in the presence or absence of radiation (5.4 Gy))?
**A.** The value was at least 30 nM.

**Q.** What about the “No. of MDAH2774 Clones (average of three plates)” value (“No. of MDAH2774 Clones” for short) ([3]; w/Radiation (5.4 Gy), 1000 cells initially plated, compound 1 nM) of the same compound?
**A.** The value was 121.

**Q.** And the “No. of MDAH2774 Clones” value ([3]; w/Radiation (5.4 Gy), 1000 cells initially plated, compound 3 nM)?
**A.** Its value is 125.

**Q.** What about the “No. of MDAH2774 Clones” value ([3]; w/Radiation (5.4 Gy), 1000 cells initially plated, compound 10 nM) of the same compound?
**A.** Its value is 121.

**Q.** And the “No. of MDAH2774 Clones” value ([3]; w/Radiation (5.4 Gy), 1000 cells initially plated, compound 30 nM)?
**A.** The value was 8.

**Q.** What about the “No. of MDAH2774 Clones” value ([3]; w/Radiation (5.4 Gy), 1000 cells initially plated, compound 100 nM) of the same compound?
**A.** The value was 3.

**Q.** What about the “No. of MDAH2774 Clones” value ([3]; w/o Radiation, 200 cells initially plated, compound 1 nM) of the same compound?
**A.** The value was 98.

**Q.** And the “No. of MDAH2774 Clones” value ([3]; w/o Radiation, 200 cells initially plated, compound 3 nM)?
**A.** Its value is 96.

**Q.** And the “No. of MDAH2774 Clones” value ([3]; w/o Radiation, 200 cells initially plated, compound 10 nM)?
**A.** Its value is 110.

**Q.** And the “No. of MDAH2774 Clones” value ([3]; w/o Radiation, 200 cells initially plated, compound 30 nM)?
**A.** Its value is 35.

**Q.** And the “No. of MDAH2774 Clones” value ([3]; w/o Radiation, 200 cells initially plated, compound 100 nM)?
**A.** Its value is 8.

**Q.** And the “cell cycle / growth effect in LoVo cells” value (LoVo)?
**A.** The value was “blocked growth”.

**Q.** Which concentration at 0.5 h [4] does the source give for `COc1cc2c(cc1OC)-c1c(c(Nc3cccc(F)c3)nn1C(=O)CO)C2` [Compound 432, 1-[3-(3-Fluoro-phenylamino)-6,7-dimethoxy-4H-indeno[1,2-c]pyrazol-1-yl]-2-hydroxy-ethanone] here?
**A.** Its concentration at 0.5 h is 80 nM.
